Laboratory results taken from PubChem BioAssay AID1259411 (Chemical Carcinogenesis Research Information System (CCRIS), 2018).
Activity calls are given as the source filed them. No rule for the calls is given here.

Tested on: rodent carcinogenicity bioassays, tumor incidence
Experiment: CCRIS carcinogenicity studies
How it was run: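 Archive of carcinogenicity, mutagenicity, tumor promotion and tumor inhibition results drawn from journals, NCI reports and other sources, expert-reviewed; covers 1985-2011 and is no longer updated.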

Nc1ccc([N+](=O)[O-])cc1
carcinogen call (Species: MOUSE, Strain/Sex: B6C3F1/FEMALE, Route: GAVAGE, Dose: 0, 3, 30, 100 MG/KG IN CORN OIL 5 D/WK FOR 103 WK (STUDY DURATION: 104 WK), Dose: 0, 3, 30, 100 MG/KG IN CORN OIL 5 D/WK FOR 103 WK (STUDY DURATION: 104 WK)): inactive; negative | carcinogen call (Species: MOUSE, Strain/Sex: B6C3F1/MALE, Route: GAVAGE, Dose: 0, 3, 30, 100 MG/KG IN CORN OIL 5 D/WK FOR 103 WK (STUDY DURATION: 104 WK), Dose: 0, 3, 30, 100 MG/KG IN CORN OIL 5 D/WK FOR 103 WK (STUDY DURATION: 104 WK), Tumor Site: Type of Lesion: LIVER: HEMANGIOSARCOMA, ALL ORGANS: HEMANGIOMA OR HEMANGIOSARCOMA): equivocal | carcinogen call (Species: RAT, Strain/Sex: STRAIN CD/MALE, FEMALE, Route: GAVAGE, Dose: 0, 0.25, 1.5, 9 MG/KG IN CORN OIL 1/D 7 D/WK FOR 24 MO (STUDY DURATION: 24 MO), Dose: 0, 0.25, 1.5, 9 MG/KG IN CORN OIL 1/D 7 D/WK FOR 24 MO (STUDY DURATION: 24 MO)): inactive; negative

CC(=O)N(O)c1ccc2c(c1)Cc1ccccc1-2
carcinogen call (Species: GUINEA PIG, Strain/Sex: FEMALE, Route: INTRAPERITONEAL, Dose: 1.5 G/100 G SUSPENDED IN SALINE-GUM ACACIA 3/WK FOR 27 MO, Tumor Site: Type of Lesion: INJECTION SITE: SARCOMA): active; positive | carcinogen call (Species: GUINEA PIG, Strain/Sex: MALE, Route: ORAL, Dose: 0.024-0.064% IN DIET (AMOUNT VARIED BECAUSE OF TOXICITY), Tumor Site: Type of Lesion: INTESTINES (SMALL): ADENOCARCINOMA): active; positive | carcinogen call (Species: HAMSTER, Strain/Sex: MALE, Route: INTRAPERITONEAL, Dose: 1.5 G/100 G SUSPENDED IN SALINE-GUM ACACIA 3/WK FOR 6-8 MO, Tumor Site: Type of Lesion: PERITONEAL CAVITY: FIBROSARCOMA): active; positive | carcinogen call (Species: HAMSTER, Strain/Sex: MALE, Route: ORAL, Dose: 0.032% IN DIET AS 5-10 G OF GLUCOSE TRITURATE/KG DIET FOR 7.5 MO, Tumor Site: Type of Lesion: FORESTOMACH: PAPILLOMA, SQUAMOUS CELL CARCINOMA, LIVER: BENIGN TUMOR): active; positive | carcinogen call (Species: MOUSE, Strain/Sex: B6C3F1/MALE, Route: INTRAPERITONEAL, Dose: 0, 0.025, 0.08, 0.23 UMOL/G BW IN 5 µL/G BW OF 80% DMSO ONCE AT 12 D OF AGE (STUDY DURATION: 9 MO), Dose: 0, 0.025, 0.08, 0.23 UMOL/G BW IN 5 µL/G BW OF 80% DMSO ONCE AT 12 D OF AGE (STUDY DURATION: 9 MO), Tumor Site: Type of Lesion: LIVER: HEPATOMA): active; positive | carcinogen call (Species: MOUSE, Strain/Sex: B6C3F2 (BRACHYMORPHOIC)/MALE, Route: INTRAPERITONEAL, Dose: 0, 0.025, 0.08, 0.23 UMOL/G BW IN 5 µL/G BW OF 80% DMSO ONCE AT 12 D OF AGE (STUDY DURATION: 9 MO), Dose: 0, 0.025, 0.08, 0.23 UMOL/G BW IN 5 µL/G BW OF 80% DMSO ONCE AT 12 D OF AGE (STUDY DURATION: 9 MO), Tumor Site: Type of Lesion: LIVER: HEPATOMA): active; positive | carcinogen call (Species: RABBIT, Strain/Sex: NZW/MALE,FEMALE, Route: INTRAPERITONEAL, Dose: 32.3 MG/KG IN 3 ML/KG SALINE 3/WK FOR 40 WK, Tumor Site: Type of Lesion: PERITONEAL CAVITY: SARCOMA): active; positive | carcinogen call (Species: RAT, Strain/Sex: CRBL/FEMALE, Route: INTRAPERITONEAL, Dose: 4.O MG/100 G 3/WK FOR 2 WK THEN 3.0 MG/100 G 3/WK FOR 2 WK, Tumor Site: Type of Lesion: MAMMARY GLAND: BENIGN TUMOR, NEOPLASM): active; positive | carcinogen call (Species: RAT, Strain/Sex: F344/FEMALE, Route: INTRAPERITONEAL, Dose: 0.10 MMOL/RAT (TOTAL DOSE), Tumor Site: Type of Lesion: LIVER: CHOLANGIOMA, CARCINOMA): active; positive | carcinogen call (Species: RAT, Strain/Sex: F344/MALE, Route: ORAL, Dose: 160 UG/G IN DIET FOR 12 WK, Tumor Site: Type of Lesion: LIVER: HEPATOMA): active; positive | carcinogen call (Species: RAT, Strain/Sex: HOLTZMAN/FEMALE, Route: INTRAPERITONEAL, Dose: 2-AAF EQUIV OF 2.5 MG SUSPENDED IN SALINE-GUM ACACIA 3/WK FOR 3 WK THEN 3.5 MG FOR 2 WK THEN 3.0 MG FOR 9 WK, Tumor Site: Type of Lesion: MAMMARY GLAND: NEOPLASM, PERITONEAL CAVITY: SARCOMA): active; positive | carcinogen call (Species: RAT, Strain/Sex: HOLTZMAN/FEMALE, Route: INTRAPERITONEAL, Dose: 2-AAF EQUIV OF 4 MG IN 0.4 ML SALINE-GUM ACACIA 3/WK FOR 4 WK, Tumor Site: Type of Lesion: MAMMARY GLAND: NEOPLASM): active; positive | carcinogen call (Species: RAT, Strain/Sex: HOLTZMAN/FEMALE, Route: ORAL, Dose: 0.032% IN GRAIN DIET FOR 4 MO, Tumor Site: Type of Lesion: MAMMARY GLAND: NEOPLASM, FORESTOMACH: PAPILLOMA, CARCINOMA, EAR (DUCT): NEOPLASM, INTESTINES (SMALL), Tumor Site: Type of Lesion: MAMMARY GLAND: NEOPLASM, FORESTOMACH: PAPILLOMA, CARCINOMA, EAR (DUCT): NEOPLASM, INTESTINES (SMALL)): active; positive | carcinogen call (Species: RAT, Strain/Sex: HOLTZMAN/MALE, Route: INTRAPERITONEAL, Dose: 2-AAF EQUIV OF 2.5 MG SUSPENDED IN SALINE-GUM ACACIA 3/WK FOR 3 WK THEN 3.5 MG 3/WK FOR 3 WK THEN 3.0 MG 3/WK FOR 9 WK, Tumor Site: Type of Lesion: EAR (DUCT): NEOPLASM, PERITONEAL CAVITY: SARCOMA, INTESTINES (SMALL): NEOPLASM, Tumor Site: Type of Lesion: EAR (DUCT): NEOPLASM, PERITONEAL CAVITY: SARCOMA, INTESTINES (SMALL): NEOPLASM): active; positive | carcinogen call (Species: RAT, Strain/Sex: HOLTZMAN/MALE, Route: ORAL, Dose: 0.032% IN GRAIN DIET FOR 3 MO, Tumor Site: Type of Lesion: LIVER: NEOPLASM, FORESTOMACH: PAPILLOMA, CARCINOMA): active; positive | carcinogen call (Species: RAT, Strain/Sex: HOLTZMAN/MALE, Route: SUBCUTANEOUS, Dose: 3.2 MG IN 0.2 ML TRICAPRYLIN 2/WK FOR 4 WK, Tumor Site: Type of Lesion: INJECTION SITE: SARCOMA, EAR (DUCT): CARCINOMA): active; positive | carcinogen call (Species: RAT, Strain/Sex: NIHBL/MALE,FEMALE, Route: ORAL, Dose: 80 UG/G IN DIET FOR 64 WK, Tumor Site: Type of Lesion: LIVER: HEPATOMA, CHOLANGIOMA): active; positive | carcinogen call (Species: RAT, Strain/Sex: SPRAGUE-DAWLEY/FEMALE, Route: INTRAPERITONEAL, Dose: 0.10, 0.17 MMOL/RAT (TOTAL DOSE), Tumor Site: Type of Lesion: MAMMARY GLAND: ADENOCARCINOMA): active; positive | carcinogen call (Species: RAT, Strain/Sex: STRAIN-CD/FEMALE, Route: INTRAPERITONEAL, Dose: 0, 67 UMOL/KG BW IN DMSO 3/WK FOR 4 WK (STUDY DURATION: 61 WK), Tumor Site: Type of Lesion: MAMMARY GLAND: ADENOCARCINOMA, HEMATOPOIETIC SYSTEM: LEUKEMIA, LYMPHOMA): active; positive | carcinogen call (Species: RAT, Strain/Sex: STRAIN-CD/FEMALE, Route: ORAL, Dose: 0.025% IN GRAIN DIET FOR 4 MO, Tumor Site: Type of Lesion: MAMMARY GLAND: CARCINOMA, LIVER: BENIGN TUMOR, NEOPLASM, EAR (DUCT): CARCINOMA, Tumor Site: Type of Lesion: MAMMARY GLAND: CARCINOMA, LIVER: BENIGN TUMOR, NEOPLASM, EAR (DUCT): CARCINOMA): active; positive
